In patent publication US6528488B2, “Method for treating cystic fibrosis” (priority 1999, dated 2003):
Where “and” joins values, the source holds several entries; their conditions need not be identical. Identical values can stand only once. Like-named read-outs stand apart in the source and are kept apart here. Ends that are not written are not given here.

Legend:
P. aeruginosa [1] = format: cell-based; settings: for cfu/plate: replicate plates; for efficacy in killing P. aeruginosa: Table 3, summary in words; for activity against P. aeruginosa: Example 5, FIG. 4
Method: The standard procedure used for testing activity was incubation of the bacterial strain with the peptide for one hour at 37° C., followed by plating at two dilutions. Peptides having the following amino acid sequences (including P-113, as in Example 4) were tested for activity against P. aeruginosa under the conditions described above: P-113 and […] were tested against P. aeruginosa under the conditions described in the preceding examples. The dilution values were as follows: expected-2000 cfu/plate (in broth) from dilution A. A=1/2.5×dilution; plate 50 μl. B=1/2.5×dilution; plate 25 μl.

P. aeruginosa [2] = format: cell-based; settings: ATCC strains and clinical CF isolates of Table 2 (assays D and A)
Method: These Pseudomonas clinical isolates, as well as a variety of Pseudomonas ATCC strains, were tested for their susceptibility to the histatin derivative having the sequence Ala-Lys-Arg-His-His-Gly-Tyr-Lys-Arg-Lys-Phe- His-NH2 (SEQ ID NO: 1) (P-113). P-113 was used at a concentration of 100 μg/mL to […]. P. aeruginosa ATCC 27853 was used as a control in each assay. The ATCC strains were tested using Direct Antibacterial Assay SOP 98-020; the clinical isolates were tested using either the Direct Antibacterial Assay (D) or Alamar Blue Antimicrobial/Antifungal Assay SOP 96-018 (A).
The Direct Assay is an MIC test in microtiter plate format in which cells resuspended in LM broth are exposed to two-fold dilutions of P-113, and the cell density is determined directly after an overnight incubation. Cells are inoculated onto a blood agar plate and incubated for 18 hours at 37° C., and then stored at room temperature for use later in the day. Cells are resuspended and diluted based on the optical density to a final concentration of 5×10^5 per ml in LM broth containing two-fold dilutions of antibiotics. After 16-18 hours at 37° C., the optical density is measured with a Molecular Devices Thermonix plate reader. A reading of ˜0.3 over background is observed for cells grown in the absence of drug. Readings<0.01 correlated with no visible growth. […]

Question: What does the source list for `C[C@H](NC(=O)[C@H](Cc1c[nH]cn1)NC(=O)[C@H](CO)NC(=O)[C@@H](N)CC(=O)O)C(=O)N[C@@H](CCCCN)C(=O)N[C@@H](CCCNC(=N)N)C(=O)N[C@@H](Cc1c[nH]cn1)C(=O)N[C@@H](Cc1c[nH]cn1)C(=O)NCC(=O)N[C@@H](Cc1ccc(O)cc1)C(=O)N[C@@H](CCCCN)C(=O)N[C@@H](CCCNC(=N)N)C(=O)N[C@@H](CCCCN)C(=O)N[C@@H](Cc1ccccc1)C(=O)N[C@@H](Cc1c[nH]cn1)C(=O)N[C@@H](CCC(=O)O)C(=O)N[C@@H](CCCCN)C(=O)N[C@@H](Cc1c[nH]cn1)C(=O)N[C@@H](Cc1c[nH]cn1)C(=O)N[C@@H](CO)C(=O)N[C@@H](Cc1c[nH]cn1)C(=O)N[C@@H](CCCNC(=N)N)C(=O)NCC(=O)N[C@@H](Cc1ccc(O)cc1)C(=O)O` [His-5, histatin 5, reference compound]?
Answer: cfu/plate (P. aeruginosa [1]; 0.5 μM, dilution A): 150 cfu/plate and 164 cfu/plate; cfu/plate (P. aeruginosa [1]; 0.5 μM, dilution B): 90 cfu/plate and 96 cfu/plate; cfu/plate (P. aeruginosa [1]; 5 μM, dilution A): 143 cfu/plate and 159 cfu/plate; cfu/plate (P. aeruginosa [1]; 5 μM, dilution B): 73 cfu/plate and 68 cfu/plate; cfu/plate (P. aeruginosa [1]; 200 μM, dilution A): 0 cfu/plate; cfu/plate (P. aeruginosa [1]; 200 μM, dilution B): 0 cfu/plate; efficacy in killing P. aeruginosa (P. aeruginosa [1]): effective in killing these bacteria

Question: For “AKRHHGYKRKFH-NH2 [P-113, Ala-Lys-Arg-His-His-Gly-Tyr-Lys-Arg-Lys-Phe- His-NH2]”, which cfu/plate (P. aeruginosa [1]; 5 μM as printed, second P-113 5 μM line (after His-5 0.5 μM), dilution A) is on record?
Answer: 133 cfu/plate and 170 cfu/plate

Question: And the cfu/plate (P. aeruginosa [1]; 5 μM as printed, second P-113 5 μM line (after His-5 0.5 μM), dilution B)?
Answer: 88 cfu/plate and 85 cfu/plate

Question: What about the cfu/plate (P. aeruginosa [1]; 50 μM, dilution A) of the same compound?
Answer: 0 cfu/plate

Question: And the cfu/plate (P. aeruginosa [1]; 200 μM, dilution A)?
Answer: 0 cfu/plate

Question: And the cfu/plate (P. aeruginosa [1]; 200 μM, dilution B)?
Answer: 0 cfu/plate

Question: What about the “activity against P. aeruginosa” value (P. aeruginosa [1]) of the same compound?
Answer: very active

Question: What about the “efficacy in killing P. aeruginosa” value (P. aeruginosa [1]) of the same compound?
Answer: greater efficacy than His-5

Question: And the “effectiveness against the Pseudomonas strains tested” value (P. aeruginosa [2])?
Answer: effective against nearly all of the Pseudomonas strains tested

Question: For “Ala-Gln-Arg-His-His- Gly-Tyr-Lys-Arg-Gln-Phe-His-NH2 (AQRHHGYKRQFH-NH2) [P-113 Q2.10]”, which “activity against P. aeruginosa” value (P. aeruginosa [1]) is on record?
Answer: very active

Question: “Ala-Gln-Gln-His-His-Gly-Tyr- Lys-Gln-Gln-Phe-His-NH2 (AQQHHGYKQQFH-NH2) [P-113 Q2.3.9.10]” was tested. Which “activity against P. aeruginosa” value (P. aeruginosa [1]) did it give?
Answer: inactive

Question: How did the “activity against P. aeruginosa” value (P. aeruginosa [1]) turn out when “Ala-Lys-Arg- Tyr-Tyr-Gly-Tyr-Lys-Arg-Lys-Phe-Tyr-NH2 (AKRYYGYKRKFY-NH2) [P-113 Y4.5.12]” was run?
Answer: very active

Question: Which “activity against P. aeruginosa” value (P. aeruginosa [1]) does the source give for “Ala-Lys-Arg-Leu- Leu-Gly-Tyr-Lys-Arg-Lys-Phe-Leu-NH2 (AKRLLGYKRKFL-NH2) [P-113 L4.5.12]” here?
Answer: also active

Question: “Ala-Lys-Gln-His-His-Gly- Tyr-Lys-Gln-Lys-Phe-His-NH2 (AKQHHGYKQKFH-NH2) [P-113 Q3.9]” was tested. Which “activity against P. aeruginosa” value (P. aeruginosa [1]) did it give?
Answer: also active
